From US20030104507A1, “Method for detection of ATP” (priority 2001, published 2003)

Assays:
[1] = system: LucPpe2m146; test: Stability of reagent composition with LucPpe2m146 and detergent (RT, pH 7.0); format: biochemical, Photuris pennsylvanica
Source text: (§1) The detergents used for inhibition of endogenous ATPase activity in a sample also affect activity of luciferase. […] It is ultimately the extended stability of a reagent composition, comprising an ATPase inhibitor and a luciferase enzyme, which provides a composition useful for measuring ATP, in a sample or samples, over an extended period of time.
(§2) In this experiment, the stability of a reagent composition comprising wild type LucPpy was compared to the stability of a reagent composition comprising LucPpe2m146 at about 23° C. (room temperature). The various reagent compositions had varying detergent concentrations.
(§3) Two solutions were created as listed below. One contained the luciferase, luciferin, MgSO4, and buffer (reagent composition). The other solution contained media plus ATP (media solution).
(§4) 50 μg/ml enzyme (LucPpy is Promega catalog #E170A)
(§5) Detergent (at various concentrations, see table below)
(§6) For each reagent composition, all ingredients except the luciferase enzyme were assembled; the enzyme was then added immediately before the first luminescence reading was taken. Immediately after addition of enzyme to each reagent composition and for various timepoints thereafter, 100 μl aliquots of the reagent composition were added to wells of a 96-well microtitre luminometer plate in triplicate. To these were added 100 μl Media Solution containing the ATP. Luminescence was then immediately read on a Dynex MLX microtitreplate luminometer, 0.5 second reads per well. The average relative light unit values as well as the reaction half lives are listed below in Table I and the percent of original luminescence remaining at each timepoint is listed in Table J below. The timepoint at the top of the column indicates the time at which the first rlu measurement for the samples in that column was read. […] Times listed in Table I are the same for Table J. The values for sulfobetaine and for CTAB were generated on different days, they are presented with the control values generated in the same experiment.

[2] = molecular target: T1, LucPpy (Photinus pyralis, UniProt P08659); test: Stability of reagent composition with LucPpy and detergent (RT, pH 7.0); format: biochemical; conditions: for Average Relative Light Units / Percent of Luminescence Remaining: LucPpy
T1 construct: purchased Promega E170A
Source text: as §1, §2, §3, §4, §5, §6

CCCCCCCCCCCCOS(=O)(=O)[O-].[Na+] [SDS, Sodium dodecyl sulfate]
Average Relative Light Units ([1]; LucPpe2m146, 0.002%, 1.0 min (head r67)): 24265.83 rlu
Percent of Luminescence Remaining ([1]; LucPpe2m146, 0.002%, 1.0 min (times of Table I r67)): 100.00%
Average Relative Light Units ([1]; LucPpe2m146, 0.002%, 34 min (head r67)): 24213.97 rlu
Percent of Luminescence Remaining ([1]; LucPpe2m146, 0.002%, 34 min (times of Table I r67)): 99.79%
Average Relative Light Units ([1]; LucPpe2m146, 0.002%, 65 min (head r67)): 24725.73 rlu
Percent of Luminescence Remaining ([1]; LucPpe2m146, 0.002%, 65 min (times of Table I r67)): 101.90%
Average Relative Light Units ([1]; LucPpe2m146, 0.002%, 115 min (head r67)): 22654.87 rlu
Percent of Luminescence Remaining ([1]; LucPpe2m146, 0.002%, 115 min (times of Table I r67)): 93.36%
Average Relative Light Units ([1]; LucPpe2m146, 0.002%, 175 min (head r67)): 23856.73 rlu
Percent of Luminescence Remaining ([1]; LucPpe2m146, 0.002%, 175 min (times of Table I r67)): 98.31%
Average Relative Light Units ([1]; LucPpe2m146, 0.002%, 238 min (head r67)): 23425.5 rlu
Percent of Luminescence Remaining ([1]; LucPpe2m146, 0.002%, 238 min (times of Table I r67)): 96.54%
Average Relative Light Units ([1]; LucPpe2m146, 0.002%, 286 min (head r67)): 23275.6 rlu
Percent of Luminescence Remaining ([1]; LucPpe2m146, 0.002%, 286 min (times of Table I r67)): 95.92%
Average Relative Light Units ([1]; LucPpe2m146, 0.01%, 1.0 min (head r54)): 24.46 rlu
Percent of Luminescence Remaining ([1]; LucPpe2m146, 0.01%, 1.0 min (times of Table I r54)): 100.00%
Average Relative Light Units ([1]; LucPpe2m146, 0.01%, 34 min (head r54)): 27.85 rlu
Percent of Luminescence Remaining ([1]; LucPpe2m146, 0.01%, 34 min (times of Table I r54)): 113.85%
Average Relative Light Units ([1]; LucPpe2m146, 0.01%, 65 min (head r54)): 10.77 rlu
Percent of Luminescence Remaining ([1]; LucPpe2m146, 0.01%, 65 min (times of Table I r54)): 44.02%
Average Relative Light Units ([1]; LucPpe2m146, 0.01%, 115 min (head r54)): 6.45 rlu
Percent of Luminescence Remaining ([1]; LucPpe2m146, 0.01%, 115 min (times of Table I r54)): 26.38%
Average Relative Light Units ([1]; LucPpe2m146, 0.01%, 175 min (head r54)): 2.02 rlu
Percent of Luminescence Remaining ([1]; LucPpe2m146, 0.01%, 175 min (times of Table I r54)): 8.25%
Average Relative Light Units ([1]; LucPpe2m146, 0.01%, 238 min (head r54)): 2.44 rlu
Percent of Luminescence Remaining ([1]; LucPpe2m146, 0.01%, 238 min (times of Table I r54)): 9.97%
Average Relative Light Units ([1]; LucPpe2m146, 0.01%, 286 min (head r54)): 0.62 rlu
Percent of Luminescence Remaining ([1]; LucPpe2m146, 0.01%, 286 min (times of Table I r54)): 2.53%
Average Relative Light Units ([1]; LucPpe2m146, 0.05%, 15 min (head r41)): 0.018 rlu
Percent of Luminescence Remaining ([1]; LucPpe2m146, 0.05%, 15 min (times of Table I r41)): 100.00%
Average Relative Light Units ([1]; LucPpe2m146, 0.05%, 72 min (head r41)): 0.012 rlu
Percent of Luminescence Remaining ([1]; LucPpe2m146, 0.05%, 72 min (times of Table I r41)): 65.68%
Average Relative Light Units ([1]; LucPpe2m146, 0.05%, 124 min (head r41)): 0.001 rlu
Percent of Luminescence Remaining ([1]; LucPpe2m146, 0.05%, 124 min (times of Table I r41)): 6.09%
Average Relative Light Units ([1]; LucPpe2m146, 0.05%, 190 min (head r41)): 0.006 rlu
Percent of Luminescence Remaining ([1]; LucPpe2m146, 0.05%, 190 min (times of Table I r41)): 35.06%
Average Relative Light Units ([1]; LucPpe2m146, 0.05%, 251 min (head r41)): 0.016 rlu
Percent of Luminescence Remaining ([1]; LucPpe2m146, 0.05%, 251 min (times of Table I r41)): 87.64%
Half-life of Luminescence Activity ([2]; Common firefly luciferase (P. pyralis), conc. 0.050): no activity
Average Relative Light Units ([2]; 0.002%, 0.75 min (head r32)): 640.290 rlu
Percent of Luminescence Remaining ([2]; 0.002%, 0.75 min (times of Table I r32)): 100.00%
Average Relative Light Units ([2]; 0.002%, 38 min (head r32)): 190.860 rlu
Percent of Luminescence Remaining ([2]; 0.002%, 38 min (times of Table I r32)): 29.81%
Average Relative Light Units ([2]; 0.002%, 70 min (head r32)): 84.210 rlu
Percent of Luminescence Remaining ([2]; 0.002%, 70 min (times of Table I r32)): 13.15%
Average Relative Light Units ([2]; 0.002%, 94 min (head r32)): 47.210 rlu
Percent of Luminescence Remaining ([2]; 0.002%, 94 min (times of Table I r32)): 7.37%
Average Relative Light Units ([2]; 0.002%, 122 min (head r32)): 25.630 rlu
Percent of Luminescence Remaining ([2]; 0.002%, 122 min (times of Table I r32)): 4.0%
Average Relative Light Units ([2]; 0.01%, 0.75 min (head r18)): 0.175 rlu
Average Relative Light Units ([2]; 0.01%, 0.75 min (head r32)): 17.584 rlu
Percent of Luminescence Remaining ([2]; 0.01%, 0.75 min (times of Table I r18)): 100.00%
Average Relative Light Units ([2]; 0.01%, 10 min (head r18)): 0.016 rlu
Percent of Luminescence Remaining ([2]; 0.01%, 10 min (times of Table I r18)): 9.14%
Average Relative Light Units ([2]; 0.01%, 38 min (head r32)): 0.001 rlu
Average Relative Light Units ([2]; 0.05%, 0.75 min (head r5)): 0.007 rlu
Percent of Luminescence Remaining ([2]; 0.05%, 0.75 min (times of Table I r5)): 100.00%
